In patent US7410963B2, “Benzo-1,4-diazepin-2-one derivatives as phosphodiesterase PDE2 inhibitors, preparation and therapeutic use thereof” (VIA Pharmaceuticals, Inc., priority 2003, dated 2008):
pIC50: −log10 of the molar value. Where two headings read alike, the source gives them in different places.

What was measured:
PDE2 = molecular target: T1, PDE2 (Bos taurus, UniProt P14099); experiment: Radioenzymatic phosphodiesterase assay: PDE2 inhibition; type: biochemical, bovine; conditions: read-out: PDE2 percentage of inhibition at 10 μM
T1 sequence (P14099 1-921): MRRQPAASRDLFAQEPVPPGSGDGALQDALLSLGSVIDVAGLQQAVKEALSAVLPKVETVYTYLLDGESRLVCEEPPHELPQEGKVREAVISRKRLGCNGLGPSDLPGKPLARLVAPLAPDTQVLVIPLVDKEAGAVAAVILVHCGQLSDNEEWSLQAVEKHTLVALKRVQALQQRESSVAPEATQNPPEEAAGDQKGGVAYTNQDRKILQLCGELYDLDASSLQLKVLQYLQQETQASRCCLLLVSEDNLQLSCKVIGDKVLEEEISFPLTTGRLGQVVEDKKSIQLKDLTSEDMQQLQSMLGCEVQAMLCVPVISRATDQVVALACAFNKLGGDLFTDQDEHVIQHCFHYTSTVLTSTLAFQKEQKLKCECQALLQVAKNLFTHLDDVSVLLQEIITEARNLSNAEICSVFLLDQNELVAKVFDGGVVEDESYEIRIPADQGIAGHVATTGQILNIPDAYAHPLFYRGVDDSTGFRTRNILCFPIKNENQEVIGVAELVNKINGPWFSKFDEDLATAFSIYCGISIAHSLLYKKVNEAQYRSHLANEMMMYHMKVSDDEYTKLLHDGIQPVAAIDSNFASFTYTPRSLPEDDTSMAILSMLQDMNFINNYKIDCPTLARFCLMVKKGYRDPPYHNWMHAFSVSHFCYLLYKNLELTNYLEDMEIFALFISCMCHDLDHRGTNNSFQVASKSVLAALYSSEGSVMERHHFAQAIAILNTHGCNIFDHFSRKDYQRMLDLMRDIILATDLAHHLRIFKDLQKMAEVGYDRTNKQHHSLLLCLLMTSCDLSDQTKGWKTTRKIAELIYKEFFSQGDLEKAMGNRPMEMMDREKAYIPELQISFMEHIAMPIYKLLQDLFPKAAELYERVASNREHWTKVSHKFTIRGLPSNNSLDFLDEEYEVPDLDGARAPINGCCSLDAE
Experimental: Nucleoside radioactivity was determined by liquid scintillation.

PDE3 = experiment: Radioenzymatic phosphodiesterase assay: PDE3 inhibition (selectivity); conditions: Table 2; 10 μM test compound; PDE3 of vascular smooth muscle
Experimental: (§1) 3 g of tunica media from bovine aorta was cut in small piece and homogenized in a glass potter with 7 volumes/weight of buffer A containing protease inhibitors cocktails (20 mM Tris-HCl, 0.25 M saccharose, 2 mM magnesium acetate, 1 mM dithiothreitol, 5 mM EGTA, 2000 U/ml aprotinine, 10 mg/l leupeptine, 10 mg/l of soybean chemotrypsin inhibitor). The homogenate was centrifuged at 875000 g for 1 h and the surpernant was then transferred in DEAE-Sephacel (15×1.6 cm). The column was equilibrated beforehand with a buffer B (buffer A without saccharose, d'EGTA and protease inhibitors). […] Fractions were aliquoted and stored at −80° C. until further use.
(§2) The monophosphated adenosine or guanosine released by the hydrolysis of tritiated cyclic nucleotides was transformed into tritiated adenosine or guanosine by excess of nucleotidase. The obtained nucleoside was separated from nucleotides by anion exchange chromatography. Nucleoside radioactivity was determined by liquid scintillation.
(§3) The phosphodiesterase inhibitory activity of compounds was evaluated on other isoforms of phosphodiesterases such as PDE3, and PDE4 of vascular smooth muscle.

PDE4 = experiment: Radioenzymatic phosphodiesterase assay: PDE4 inhibition (selectivity); conditions: Table 2, PDE4 of vascular smooth muscle; for PDE4 percentage of inhibition at 10 μM: 10 μM test compound
Experimental: as §1, §2, §3

| SMILES | inhibition at 10 µM (PDE2; Table 1, 10 μM test compound) | PDE3 percentage of inhibition at 10 μM (PDE3) | PDE4 percentage of inhibition at 10 μM (PDE4) | inhibition at 10 µM (PDE2) | pIC50 (PDE4; read-out: PDE4 IC50) |
| --- | --- | --- | --- | --- | --- |
| COc1cc2c(cc1-c1c(OC)cccc1OC)C(c1cccc(C(N)=O)c1)=NCC(=O)N2C [Example 92, 3-[7-(2,6-Dimethoxy-phenyl)-8-methoxy-1-methyl-2-oxo-2,3-dihydro-1H-benzo[e][1,4]diazepin-5-yl]-benzamide] | 97% | 52% | 23% | – | – |
| COc1cc2c(cc1-c1ccccc1Oc1ccccc1)C(c1cccc(C(N)=O)c1)=NCC(=O)N2C [Example 93, 3-[8-Methoxy-1-methyl-2-oxo-7-(2-phenoxy-phenyl)-2,3-dihydro-1H-benzo[e][1,4]diazepin-5-yl]-benzamide] | 98% | 72% | 56% | – | – |
| COc1cccc(OC)c1-c1ccc2c(c1)C(c1ccc(F)cc1)=NCC(=O)N2C [Example 100, 7-(2,6-Dimethoxy-phenyl)-5-(4-fluoro-phenyl)-1-methyl-1,3-dihydro-benzo[e][1,4]diazepin-2-one] | – | 0% | 77% | 96% | – |
| COc1ccc(C2=NCC(=O)N(C)c3cc(OC)c(-c4c(OC)cccc4OC)cc32)cc1 [Example 109, 7-(2,6-Dimethoxy-phenyl)-8-methoxy-5-(4-methoxy-phenyl)-1-methyl-1,3-dihydro-benzo[e][1,4]diazepin-2-one] | 99% | 37% | 90% | – | 6.00 |
| COc1cccc(OC)c1-c1ccc2c(c1)C(c1cccc(C)c1)=NCC(=O)N2C [Example 115, 7-(2,6-Dimethoxy-phenyl)-1-methyl-5-m-tolyl-1,3-dihydro-benzo[e][1,4]diazepin-2-one] | – | 3% | 42% | 96% | – |
